Source: patent US20210085703A1, “Compositions and Methods for Preventing or Treating Nephrolithiasis” (SP Nutraceuticals, Inc., priority 2017, published 2021)
Read-outs that look alike come from different tables or passages of the source.

What was measured:
[1] = system: calcium oxalate calculi deposition in fecal excreta of D. melanogaster; assay: Drug library screening by D. melanogaster fecal excreta birefringence assay; format: in vivo, Drosophila melanogaster; details: 20 μM candidate compound in fly media with 0.5% (w/v) sodium oxalate; duplicates
Procedure: To quantify calcium oxalate calculi via D. melanogaster excreta birefringence assay, approximately 20 newly eclosed flies were added to each of 15 vials containing either of the lithogenic diets or standard food medium as a control. Stone forming diets were prepared according to the method discussed above. A glass coverslip (18×18 mm) was suspended from the cotton tube plug to allow for the collection of fecal matter. Following a 14-day incubation period, the coverslip was extracted from each tube and each coverslip was directly imaged by confocal microscopy under polarized light. Control experiments performed in a similar fashion with standard food media. The percent area of birefringence for each coverslip was individually analyzed and quantified using NIH ImageJ software (Particle Analysis function). […] The percentage area of birefringence was quantified and compared birefringence data from control experiments with separately prepared 0.5% sodium oxalate media with no addition of candidate compounds. […] After 7 days of incubation and ingestion of drug candidates, viability of flies was quantitated and all coverslips containing fecal excreta were analyzed for birefringence signal (FIG. 2d).

[2] = rat; cited from earlier work
[3] = cited from earlier work
[4] = in vitro or in vivo studies; cited from earlier work
[5] = system: calcium oxalate stone formation in D. melanogaster; assay: Dose response relationship of arbutin and calcium oxalate stone formation (fecal excreta and dissected Malpighian tubules); format: in vivo, Drosophila melanogaster
Procedure: To quantify calcium oxalate calculi via D. melanogaster excreta birefringence assay, approximately 20 newly eclosed flies were added to each of 15 vials containing either of the lithogenic diets or standard food medium as a control. Stone forming diets were prepared according to the method discussed above. A glass coverslip (18×18 mm) was suspended from the cotton tube plug to allow for the collection of fecal matter. Following a 14-day incubation period, the coverslip was extracted from each tube and each coverslip was directly imaged by confocal microscopy under polarized light. Control experiments performed in a similar fashion with standard food media. The percent area of birefringence for each coverslip was individually analyzed and quantified using NIH ImageJ software (Particle Analysis function). In order to measure dose response relationship of arbutin and calcium oxalate stone formation, thirty milliliters of 0.5% (w/v) sodium oxalate media was prepared with […] arbutin. A 10-fold serial dilution was performed to obtain 15 ml of media per dilution. Each dilution was divided into 3 narrow fly vials to yield triplicates. Approximately 20 newly eclosed flies were added to each vial with a glass coverslip (18×18mm) suspended from the cotton via plug to collect fecal matter. After a 14-day incubation period, each coverslip was extracted and stone burden was quantified as described above to observe the dose-response relationship between arbutin concentration and percentage area of birefringence.

[6] = mouse; cited from earlier work
[7] = Preliminary NMR studies of arbutin in acidic conditions; format: physicochemical; details: low pH, in solution
Source text: Arbutin has been described to readily degrade into the split components D-glucose and HQ (and conjugates) in acidic environments, an enteric coated tablet vehicle could potentially be utilised to bypass hydrolysis by stomach acids and improve oral bioavailability.

[8] = In vitro patient-urine based analysis of arbutin and calcium oxalate interactions (birefringence); parameters: species or system human; details: 1 mM arbutin, pH7/37° C., 24 hours
Procedure: 50 μl of recurrent calcium oxalate stone forming patient urine and healthy urine samples were combined with 45 μl of 20 mM 4-(2-hydroxyethyl)-1-piperazineethanesulfonic acid (HEPES) buffer (pH 7-8). 5 μl of 20 mM arbutin was added to each solution to form a 1 mM final concentration of the drug. Immediately after addition of the drug, 5 μl of each sample was spotted on a glass slide and birefringence data was imaged on confocal microscope. Each sample was incubated at 37° C. for 24 hours. 5 μl of the sample was identically collected and reimaged. The percent area of birefringence was data analysed as described above. This experiment was repeated in sodium acetate/acetic acid buffer at pH of 4 to observe the efficacy of arbutin in acidic environments. Reduction of percentage stone reduction was analysed using one way ANOVA. Control experiments were conducted using Quick Fix plus synthetic urine from Spectrum labs Cincinnati, Ohio, USA.

HEK293 cells [9] = assay: Cytotoxicity assay (LDH release) of sodium oxalate and arbutin on human kidney epithelial cells; format: cell-based; details: arbutin 1 mM final with oxalate, 30 min incubation
Procedure: (§1) To assess the cytotoxity of sodium oxalate and arbutin, human embryonic kidney epithelial cells (HEK293; ATCC® CRL-1573™), were cultured in 6-well plate containing 18 mm diameter glass coverslips to 50% confluence. Following aspiration of culture medium, the cells were incubated in a chloride-free solution containing 130 mM Potassium Gluconate, 5 mM Glucose, and 20 mM HEPES (pH 7.4) and 20 μM sodium oxalate for 30 minutes. The treated media was then removed and stored at 4° C. for further analysis. Cells were washed with Cl-free buffer and stained with 20 μM Cell tracker red CMTPX Dye (ThermoFisher Scientific) for 15 mins. Cells were triple washed with Cl-buffer and coverslips were mounted with ProLong® Gold Antifade Mountant with DAPI (ThermoFisher Scientific) without permeabilizing in preparation for confocal microscopy. Samples were imaged using a Nikon A1R+ confocal microscope (1.2 au) with a 20× dry or 60× oil-immersion lens and presented using NIS Elements software (Nikon).
The cytotoxicity of HEK293 cells in sodium oxalate media with or without arbutin was determined by quantifying […] (LDH) content liberated by damaged cells using Cytotoxicity Detection KitPLUS (LDH) (Roche) following the manufacturers instructions. Absorbance readings were taken at 492 nm using BioTek PowerWave HT Microplate Spectrophotometer.

[10] = system: calcium oxalate stone burden in D. melanogaster fed patient urine; assay: Patient derived urine based calcium oxalate stone induction in D. melanogaster; format: in vivo, Drosophila melanogaster
Procedure: In addition, effect of arbutin on patient derived urine based calcium oxalate stone induction in D. melanogaster was assessed. Urine samples were collected from recurrent calcium oxalate stone forming patients (n=10 patients) and centrifuged at 2500 rpm. One milliter aliquots of supernatant were prepared and stored at −80° C. for further analysis. Ten milliters of standard medium was prepared and thoroughly mixed with 1mL of patient urine, this was separated into two individual narrow vials (5 mL per vial). Approximately 20 newly eclosed flies were added to each vial. A glass coverslip (18×18 mm) was suspended from the cotton vial plug to collect fecal matter. […] Stone burden on each coverslip was quantified via the aforementioned birefringence assay and results were expressed as mean±standard error of mean (SEM). Percentage stone burden were analyzed using one way analysis of variance (ANOVA), (Prism 6, GraphPad Software, Inc., San Diego, Calif., USA) (FIG. 3e).
D. melanogaster incubated in this patient urine based model generated calculi in the same manner as with fly food supplemented with sodium oxalate. […] Various pH's were evaluated in order to recapitulate the pH in human urine at the kidney and bladder (pH 4-6) with a greater reduction in calculi formation observed at pH 7-8 (FIG. 3f, * denotes p<0.05, two-way ANOVA, Scheffe a correction).

HEK293 cells [11] = assay: Cell viability of HEK cells under oxalate conditions with arbutin; format: cell-based, human
Procedure: FIG. 6a) Confocal fluorescence images of HEK293 cells stained with CellTracker Red to label the cell surface and Hoechst to label the nuclei. HEK293 cells were treated with 20 μM sodium oxalate for 30 mins. Birefringence signal was observed within HEK293 cells (white signal). FIG. 6b) Activity of LDH released from HEK293 cells after 30 min incubation with oxalate in the presence or absence of arbutin. FIG. 6c) Cell viability in arbutin treated HEK293 and PC3MLN4 cells over a 3 day period. Green line represents control normalized to 100% at that same timepoint. *** denotes p<0.05, two way ANOVA; Scheffe a correction.
as §1, with “Following aspiration of culture medium, the cells were incubated in a chloride-free solution containing 130 mM Potassium Gluconate, 5 mM Glucose, and 20 mM HEPES (pH 7.4) and 20 μM sodium oxalate for 30 minutes.” left out

Q: Which “anti-lithogenic activity in library screen (calculi deposition in fecal excreta)” value [1] does the source give for `OCC1OC(Oc2ccc(O)cc2)C(O)C(O)C1O` [arbutin, hydroquinone β-D-glucopyranoside] here?
A: consistently exhibited anti-lithogenic activity

Q: And the “acute and chronic toxicity by oral dosing” value [2]?
A: low risk of acute and chronic toxicity

Q: What about the “administered arbutin dose retrieved in the urine as HQ conjugates” value ([3]; human, 4 hrs following an oral dose) of the same molecule?
A: approximately 70%

Q: And the “absorption from the GI tract” value ([3]; oral)?
A: heavily absorbed from the GI tract

Q: And the genotoxic effects [4]?
A: No genotoxic effects

Q: What about the “calculi content in MTs” value ([5]; 32 μM and 512 μM arbutin treatment) of the same molecule?
A: decreases in calculi content in MTs

Q: What about the “arbutin concentration at which calculi content in fecal excreta significantly decreased” value ([5]; 0.5% (w/v) sodium oxalate media, 14-day incubation) of the same molecule?
A: > 64 µM

Q: What about the IC50 ([5]; Drosophila melanogaster, 336 h, 0.5% (w/v) sodium oxalate media, 14-day incubation, read-out: calculated IC50, calculi content deposited in fecal excreta) of the same molecule?
A: 40 µM

Q: What about the “calculi deposits in dissected MTs compared to controls” value ([5]; arbutin at 1 mM in fly media+0.05% sodium oxalate, controls fly media+0.5% oxalate±DMSO) of the same molecule?
A: near abrogation of calculi deposits

Q: What about the “lowest concentration with anti-lithogenic abilities” value ([5]; fly media supplemented with sodium oxalate (0.5%)) of the same molecule?
A: 64 µM

Q: And the “acute and chronic toxicity by oral dosing” value [6]?
A: low risk of acute and chronic toxicity

Q: And the “stability in acidic conditions (NMR)” value [7]?
A: stable

Q: And the “difference in birefringence events in control, healthy urine samples” value [8]?
A: not significant

Q: And the “birefringence events in nephrolithiasis patient urine samples” value ([8]; n=3)?
A: significant reduction in birefringence events

Q: And the “LDH activity compared to arbutin treatment alone” value (HEK293 cells [9])?
A: no impact

Q: What about the “stone burden via fecal excreta assay in comparison with citrate” value ([10]; 1 mM final concentration in fly media with patient urine, regardless of pH) of the same molecule?
A: significant decrease in stone burden

Q: What about the “pH with greater reduction in calculi formation” value ([10]; 1 mM in fly media with patient urine, various pHs) of the same molecule?
A: 7-8 pH

Q: And the “cell viability compared to arbutin treatment alone” value (HEK293 cells [11]; arbutin 1 mM final with oxalate, HEK cells)?
A: no impact

Q: What about the “effect on oxalate induced loss of cell viability” value (HEK293 cells [11]; arbutin 1 mM final, HEK cells under 0.1% calcium oxalate conditions) of the same molecule?
A: ameliorated this effect
